For 13 molecules, IC50, viability and Activity results are on record in ChEMBL document CHEMBL5614422, “Design, synthesis and biological evaluation of N-salicyloyl tryptamine derivatives as multifunctional neuroprotectants for the treatment of ischemic stroke” (Eur J Med Chem, 2024).

By IC50 is commonly meant the concentration that inhibits the measured activity by half.

System in one series: not listed separately
The experiment in a line: Cytotoxicity against mouse HT-22 cells assessed as cell viability incubated for 24 hrs by CCK-8 method. It is filed as toxicity, cell-based.
Settings: not given
For `COc1cccc2c(CCNC(=O)c3ccc(C)cc3O)c[nH]c12`, the IC50 at 24 h was determined as 73.2 µM.

For `Cc1ccc(C(=O)NCCc2c[nH]c3ccccc23)c(O)c1`, the IC50 at 24 h was greater than 100 µM.

Consider `Cc1ccc(C(=O)NCCc2c[nH]c3cccc(F)c23)c(O)c1`, for which the IC50 at 24 h is 84.6 µM.

For `Cc1ccc(C(=O)NCCc2c[nH]c3ccc(F)cc23)c(O)c1`, the IC50 at 24 h is greater than 100 µM.

On to `O=C(NCCc1c[nH]c2ccccc12)c1ccc(Br)cc1O`, for which the IC50 at 24 h is greater than 100 µM.

As to `CNc1cccc2c(CCNC(=O)c3ccc(C)cc3O)c[nH]c12`, the IC50 at 24 h is greater than 100 µM.

As to `COc1ccc(C(=O)NCCc2c[nH]c3ccccc23)c(O)c1`, the IC50 at 24 h came out at 52.6 µM.

Regarding `O=C(NCCc1c[nH]c2ccccc12)c1cccc(Br)c1O`, the IC50 at 24 h was found to be 48.5 µM.

Take `COc1cc(C)cc2[nH]cc(CCNC(=O)c3ccc(C)cc3O)c12`: the IC50 at 24 h is 73 µM.

Turning to `COc1cccc2[nH]cc(CCNC(=O)c3ccc(C)cc3O)c12`, the IC50 at 24 h was determined as 78.4 µM.

With `Cc1ccc(C(=O)NCCc2c[nH]c3ccc(C)cc23)c(O)c1`, the IC50 at 24 h was greater than 100 µM.

`O=C(NCCc1c[nH]c2ccccc12)c1ccc(Cl)cc1O`: the half-inhibitory concentration (IC50) at 24 h is 99.7 µM.

Regarding `Cc1ccc(C(=O)NCCc2c[nH]c3ccc(Br)cc23)c(O)c1`, the concentration for half-maximal inhibition (IC50) at 24 h was 76.1 µM.

Another series concerns HT-22. Nature of the series: Neuroprotective activity against OGD/R induced cell damage in mouse HT-22 cells assessed as cell viability at 10 uM measured after 24 hrs by MTT assay (reference value: 69.01 +/-2.90%). It is filed as functional. The conditions noted are these: read-out: Activity. In general terms: Tetrazolium assays rely on reduction of a dye to a coloured formazan, in cell work by metabolically active cells.
With `COc1cccc2c(CCNC(=O)c3ccc(C)cc3O)c[nH]c12`, the viability at 10 µM turned out to be 91.5%.

Take `Cc1ccc(C(=O)NCCc2c[nH]c3ccccc23)c(O)c1`: the viability at 10 µM came to 88.8%.

As for `Cc1ccc(C(=O)NCCc2c[nH]c3cccc(F)c23)c(O)c1`, the viability at 10 µM was determined as 94.5%.

On to `Cc1ccc(C(=O)NCCc2c[nH]c3ccc(F)cc23)c(O)c1`, for which the viability at 10 µM amounted to 83.9%.

For `O=C(NCCc1c[nH]c2ccccc12)c1ccc(Br)cc1O`, the viability at 10 µM was found to be 76.2%.

With `CNc1cccc2c(CCNC(=O)c3ccc(C)cc3O)c[nH]c12`, the viability at 10 µM worked out at 80.8%.

`COc1ccc(C(=O)NCCc2c[nH]c3ccccc23)c(O)c1`: the viability at 10 µM came to 86.9%.

On to `O=C(NCCc1c[nH]c2ccccc12)c1cccc(Br)c1O`, for which the viability at 10 µM was 79.7%.

As for `COc1cc(C)cc2[nH]cc(CCNC(=O)c3ccc(C)cc3O)c12`, the viability at 10 µM amounted to 85.4%.

For the molecule `COc1cccc2[nH]cc(CCNC(=O)c3ccc(C)cc3O)c12`, the viability at 10 µM was 74%.

For the molecule `Cc1ccc(C(=O)NCCc2c[nH]c3ccc(C)cc23)c(O)c1`, the viability at 10 µM is 89.5%.

On to `O=C(NCCc1c[nH]c2ccccc12)c1ccc(Cl)cc1O`, for which the viability at 10 µM was 65.8%.

As for `Cc1ccc(C(=O)NCCc2c[nH]c3ccc(Br)cc23)c(O)c1`, the viability at 10 µM came out at 67.8%.

System in the next series: not listed separately
Nature of the series: Cytotoxicity against mouse BV-2 cells assessed as cell viability incubated for 24 hrs by CCK-8 method. It is filed as toxicity, cell-based.
Settings: not given
As for `COc1cccc2c(CCNC(=O)c3ccc(C)cc3O)c[nH]c12`, the IC50 at 24 h was 90.9 µM.

In the case of `Cc1ccc(C(=O)NCCc2c[nH]c3ccccc23)c(O)c1`, the IC50 at 24 h is greater than 100 µM.

As for `Cc1ccc(C(=O)NCCc2c[nH]c3cccc(F)c23)c(O)c1`, the IC50 at 24 h was found to be 81.7 µM.

As for `Cc1ccc(C(=O)NCCc2c[nH]c3ccc(F)cc23)c(O)c1`, the IC50 at 24 h is greater than 100 µM.

Consider `O=C(NCCc1c[nH]c2ccccc12)c1ccc(Br)cc1O`, for which the IC50 at 24 h is greater than 100 µM.

Take `CNc1cccc2c(CCNC(=O)c3ccc(C)cc3O)c[nH]c12`: the IC50 at 24 h amounted to 28.9 µM.

For the molecule `COc1ccc(C(=O)NCCc2c[nH]c3ccccc23)c(O)c1`, the IC50 at 24 h came to 68 µM.

Take `O=C(NCCc1c[nH]c2ccccc12)c1cccc(Br)c1O`: the IC50 at 24 h stood at 85.4 µM.

On to `COc1cc(C)cc2[nH]cc(CCNC(=O)c3ccc(C)cc3O)c12`, for which the IC50 at 24 h is 52.9 µM.

As for `COc1cccc2[nH]cc(CCNC(=O)c3ccc(C)cc3O)c12`, the IC50 at 24 h was 96 µM.

In the case of `Cc1ccc(C(=O)NCCc2c[nH]c3ccc(C)cc23)c(O)c1`, the IC50 at 24 h was 79.3 µM.

On to `O=C(NCCc1c[nH]c2ccccc12)c1ccc(Cl)cc1O`, for which the IC50 at 24 h is 53.4 µM.

Take `Cc1ccc(C(=O)NCCc2c[nH]c3ccc(Br)cc23)c(O)c1`: the half-inhibitory concentration (IC50) at 24 h was found to be 88.6 µM.

System in the next series: not listed separately
Nature of the series: Antioxidant activity assessed as trolox equivalent of ORAC radical scavenging activity at 0.125 to 2 uM by AAPH based automatic microplate reader analysis. Particulars: dose 0.125-2 µM. It is filed as functional.
As for `COc1cccc2c(CCNC(=O)c3ccc(C)cc3O)c[nH]c12`, the Activity was determined as 2.

Turning to `Cc1ccc(C(=O)NCCc2c[nH]c3ccccc23)c(O)c1`, the Activity was 4.4.

Take `Cc1ccc(C(=O)NCCc2c[nH]c3cccc(F)c23)c(O)c1`: the Activity is 3.7.

As to `Cc1ccc(C(=O)NCCc2c[nH]c3ccc(F)cc23)c(O)c1`, the Activity amounted to 3.1.

Take `Cc1ccc(C(=O)NCCc2c[nH]c3ccc(C)cc23)c(O)c1`: the Activity was found to be 3.1.

The test system of a further series is HT-22. Nature of the series: Antioxidant activity against OGD/R induced damage in mouse HT-22 cells assessed as decrease in proportion of mitochondrial depolarized cells at 10 uM by JC-1 fluorescence based flow cytometry analysis (reference value: 91.7%). Type of series: functional. Also noted: scale not given: the % may be the effect or the level left.
Settings: not given
In general terms: A flow cytometer gives signals particle by particle.
On to `Cc1ccc(C(=O)NCCc2c[nH]c3ccccc23)c(O)c1`, for which the Activity was 74%.
